Results on one compound are retold here after ChEMBL document CHEMBL5107949, “Design, synthesis, and antibacterial activity of N-(trifluoromethyl)phenyl substituted pyrazole derivatives” (RSC Med Chem, 2021).

In brackets after ≈: the same amount, converted by molar mass. Activity calls are given as the source filed them. The calls are words filed in the database; no cut-off is given here.

The test system of data set [1] is Staphylococcus aureus. Put plainly: Bactericidal activity against Staphylococcus aureus ATCC 700699 persisters assessed as log reduction in colony forming unit at 32 times MIC measured for 4 hrs by time kill assay. Type of data set: functional.
Data set [2] deals with Enterococcus faecalis. The data set can be described thus: Inhibition of biofilm formation in Enterococcus faecalis ATCC 29212 at 12.5 ug/ml incubated for 24 hrs by Calgary biofilm device assay. Type of data set: functional. Particulars: dose 12.5 µg/ml.
Data set [3] relates to Staphylococcus aureus. Put plainly: Anti-biofilm activity against Staphylococcus aureus ATCC 25923 assessed as eradication of biofilm formation incubated for 24 hrs by Calgary biofilm device assay. The following applies: Staphylococcus aureus, ATCC 25923. Format: functional.
A short description of data set [4]: Cytotoxicity against human HEK293 cells reduction in cell viability incubated for 24 hrs by resazurin cell viability assay. Type of data set: toxicity, cell-based. In general terms: Resazurin is reduced to fluorescent resorufin, in cell work by metabolically active cells.
Data set [5] has as its system Enterococcus faecalis. Put plainly: Antibacterial activity against Enterococcus faecalis clinical isolate 1088051 assessed as inhibition of bacterial growth by CLSI protocol based broth microdilution method. Format: functional. For orientation: Dilution methods test growth across graded concentrations, often in twofold steps.
For data set [6], the system named is Staphylococcus aureus. Put plainly: Antibacterial activity against antibiotic resistant Staphylococcus aureus ATCC 33592 assessed as inhibition of bacterial growth by CLSI protocol based broth microdilution method. Type of data set: functional.
For data set [7], the system named is Staphylococcus aureus. The data set can be described thus: Antibacterial activity against Staphylococcus aureus clinical isolate 1088626 assessed as inhibition of bacterial growth by CLSI protocol based broth microdilution method. Format: functional.
Data set [8] deals with Enterococcus faecalis. The data set can be described thus: Antibacterial activity against Enterococcus faecalis clinical isolate 1094112 assessed as inhibition of bacterial growth by CLSI protocol based broth microdilution method. Format: functional.
Data set [9] concerns Staphylococcus aureus. Put plainly: Antibacterial activity against antibiotic resistant Staphylococcus aureus BAA-2312 assessed as inhibition of bacterial growth by CLSI protocol based broth microdilution method. Type of data set: functional.
Data set [10] deals with Enterococcus faecalis. Put plainly: Anti-biofilm activity against Enterococcus faecalis ATCC 29212 assessed as eradication of biofilm formation incubated for 24 hrs by Calgary biofilm device assay. Type of data set: functional.
The test system of data set [11] is Enterococcus faecium. The data set can be described thus: Antibacterial activity against Enterococcus faecium clinical isolate 1088168 assessed as inhibition of bacterial growth by CLSI protocol based broth microdilution method. Type of data set: functional.
Data set [12] relates to Enterococcus faecalis. The data set can be described thus: Anti-biofilm activity against Enterococcus faecalis ATCC 29212 assessed as minimum bactericidal concentration incubated for 24 hrs by Calgary biofilm device assay. Particulars: ATCC 29212, 24 h.
Data set [13] concerns Staphylococcus epidermidis. The data set can be described thus: Antibacterial activity against antibiotic resistant Staphylococcus epidermidis ATCC 700296 assessed as inhibition of bacterial growth by CLSI protocol based broth microdilution method. Format: functional.
Data set [14] deals with Enterococcus faecalis. Put plainly: Antibacterial activity against antibiotic susceptible Enterococcus faecalis ATCC 29212 assessed as inhibition of bacterial growth by CLSI protocol based broth microdilution method. Format: functional.
In data set [15] the test system is Staphylococcus aureus. The data set can be described thus: Inhibition of lipid synthesis in Staphylococcus aureus ATCC 29213 at MIC preincubated for 30 mins followed by [3H]-glycerol and measured after 50 mins by [3H]-glycerol incorporation based beta scintillation counter analysis. Format: functional. Particulars: time 80 min; 1.333 h.
For data set [16], the system named is Enterococcus faecium. Put plainly: Antibacterial activity against Enterococcus faecium clinical isolate 1089544 assessed as inhibition of bacterial growth by CLSI protocol based broth microdilution method. Format: functional.

As usually defined, the IC50 is the concentration that gives 50% inhibition. In general, MIC refers to the least concentration at which growth counts as inhibited. Turning to `O=C(O)c1ccc(-c2nn(-c3ccc(C(F)(F)F)cc3)cc2CNc2ccc(Br)c(C(F)(F)F)c2)cc1`, in the data set on Staphylococcus aureus [1], the “log(activity)” value is given as 5. For the same compound, in the data set on Enterococcus faecalis [2], the inhibition entry was “Active”. Further, the MBEC in the data set on Staphylococcus aureus [3] and with Enterococcus faecalis [10] was 6.25 µg/mL in each case. For the same compound, the IC50 at 24 h in data set [4] is > 12 µg/mL. Also, the minimum inhibitory concentration (MIC) amounted to 4 µg/mL (≈ 6.85 µM) in the data set with Enterococcus faecalis [5]; 0.78 µg/mL (≈ 1.33 µM) with Staphylococcus aureus [6]; 4 µg/mL (≈ 6.85 µM) with Staphylococcus aureus [7]; 8 µg/mL (≈ 13.7 µM) in the data set with Enterococcus faecalis [8]; 1.56 µg/mL (≈ 2.67 µM) with Staphylococcus aureus [9]; 4 µg/mL (≈ 6.85 µM) in the data set with Enterococcus faecium [11]. Besides, the minimal inhibitory concentration (MIC) was determined as 1.56 µg/mL (≈ 2.67 µM) in [13], 3.12 µg/mL (≈ 5.35 µM) with Enterococcus faecalis [14] and 8 µg/mL (≈ 13.7 µM) in the data set on Enterococcus faecium [16]. In addition, in the data set on Enterococcus faecalis [12], the MBC was 6.25 µg/mL (≈ 10.7 µM). For the same compound, the “inhibition (INH)” value in the data set with Staphylococcus aureus [15] worked out at 88.3%.
